This passage reports IC50 results from patent US20260297083A1, “SUBSTITUTED ACETYLENE COMPOUND DERIVATIVES AND THEIR PHARMACEUTICAL USE” (AVELOS THERAPEUTICS INC., priority 2023, published 2026).

For orientation: IC50 means the concentration that gives 50% inhibition. The low end stands for greater potency, the high end for weaker potency.

This test deals with DLD-1 BRCA2(−/−) Cell. Put plainly: Cell viability assay (Resazurin) in DLD1-BRCA2 cells. It counts as cell-based. Particulars: Homo sapiens, DLD-1, 336 h, 14 days, 1,500 cells/well, final DMSO 1%. In outline:
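DLD1-BRCA2 KG cells seeded at 1,500/well (parental 600/well) in RPMI-1640 with 10% FBS, compound added after 4 h (1% DMSO), media replaced every 3-4 days over 14 days at 37° C. Viability read by resazurin (0.1 mg/ml, 4 h) fluorescence at Ex/Em 560/590 nm; IC50 fitted.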
Background: Alamar Blue is a resazurin reagent that responds to reducing activity.
As to `Cc1cc(C(F)(F)F)cc(N2[C@H](C(=O)N(CC#Cc3cnc(-c4ncon4)cn3)c3ccc(F)c(C)c3)CCS2(=O)=O)n1` [Example 58, (S)-N-(3-(5-(1,2,4-oxadiazol-3-yl)pyrazin-2-yl)prop-2-yn-1-yl)-N-(4-fluoro-3-methylphenyl)-2-(6-methyl-4-(trifluoromethyl)pyridin-2-yl)isothiazolidine-3-carboxamide 1,1-dioxide], the IC50 was under 1000 nM.

Compound `Cc1cc(C(F)(F)F)cc(N2[C@H](C(=O)N(CC#Cc3cnc(C#N)cn3)c3ccc(F)c(C)c3)CCS2(=O)=O)n1` [Example 59, (S)-N-(3-(5-cyanopyrazin-2-yl)prop-2-yn-1-yl)-N-(4-fluoro-3-methylphenyl)-2-(6-methyl-4-(trifluoromethyl)pyridin-2-yl)isothiazolidine-3-carboxamide 1,1-dioxide] gave a half-maximal inhibitory concentration (IC50) of under 1000 nM.

Take `Cc1cc(C(F)(F)F)cc(N2[C@H](C(=O)N(CC#Cc3cnc(C(=O)O)cn3)c3ccc(F)c(C)c3)CCS2(=O)=O)n1` [Example 60, (S)-5-(3-(N-(4-fluoro-3-methylphenyl)-2-(6-methyl-4-(trifluoromethyl)pyridin-2-yl)-1,1-dioxidoisothiazolidine-3-carboxamido)prop-1-yn-1-yl)pyrazine-2-carboxylic acid]: the IC50 was over 5100 nM.

As for `Cc1cc(C(F)(F)F)cc(N2[C@H](C(=O)N(CC#Cc3cnc(C(N)=O)cn3)c3ccc(F)c(C)c3)CCS2(=O)=O)n1` [Example 61, (S)-N-(3-(5-carbamoylpyrazin-2-yl)prop-2-yn-1-yl)-N-(4-fluoro-3-methylphenyl)-2-(6-methyl-4-(trifluoromethyl)pyridin-2-yl)isothiazolidine-3-carboxamide 1,1-dioxide], the half-inhibitory concentration (IC50) is over 5100 nM.

Regarding `Cc1cc(C(F)(F)F)cc(N2[C@H](C(=O)N(CC#Cc3cnc(C(N)=O)c(C)n3)c3ccc(F)c(C)c3)CCS2(=O)=O)n1` [Example 62, (S)-N-(3-(5-carbamoyl-6-methylpyrazin-2-yl)prop-2-yn-1-yl)-N-(4-fluoro-3-methylphenyl)-2-(6-methyl-4-(trifluoromethyl)pyridin-2-yl)isothiazolidine-3-carboxamide 1,1-dioxide], the IC50 was under 1000 nM.

Consider `Cc1cc(C(F)(F)F)cc(N2[C@H](C(=O)N(CC#Cc3cncc(C(N)=O)n3)c3ccc(F)c(C)c3)CCS2(=O)=O)n1` [Example 63, (S)-N-(3-(6-carbamoylpyrazin-2-yl)prop-2-yn-1-yl)-N-(4-fluoro-3-methylphenyl)-2-(6-methyl-4-(trifluoromethyl)pyridin-2-yl)isothiazolidine-3-carboxamide 1,1-dioxide], for which the half-inhibitory concentration (IC50) is under 1000 nM.

`Cc1cc(C(F)(F)F)cc(N2[C@H](C(=O)N(CC#Cc3nccnc3C(N)=O)c3ccc(F)c(C)c3)CCS2(=O)=O)n1` [Example 64, (S)-N-(3-(3-carbamoylpyrazin-2-yl)prop-2-yn-1-yl)-N-(4-fluoro-3-methylphenyl)-2-(6-methyl-4-(trifluoromethyl)pyridin-2-yl)isothiazolidine-3-carboxamide 1,1-dioxide]: the IC50 was under 1000 nM.

`Cc1cc(C(F)(F)F)cc(N2[C@H](C(=O)N(CC#Cc3cnc(S(N)(=O)=O)cn3)c3ccc(F)c(C)c3)CCS2(=O)=O)n1` [Example 65, (S)-N-(4-fluoro-3-methylphenyl)-2-(6-methyl-4-(trifluoromethyl)pyridin-2-yl)-N-(3-(5-sulfamoylpyrazin-2-yl)prop-2-yn-1-yl)isothiazolidine-3-carboxamide 1,1-dioxide] yielded a concentration for half-maximal inhibition (IC50) of under 1000 nM.

Regarding `Cc1cc(C(F)(F)F)cc(N2[C@H](C(=O)N(CC#Cc3cncc(S(N)(=O)=O)n3)c3ccc(F)c(C)c3)CCS2(=O)=O)n1` [Example 66, (S)-N-(4-fluoro-3-methylphenyl)-2-(6-methyl-4-(trifluoromethyl)pyridin-2-yl)-N-(3-(6-sulfamoylpyrazin-2-yl)prop-2-yn-1-yl)isothiazolidine-3-carboxamide 1,1-dioxide], the half-maximal inhibitory concentration (IC50) is under 1000 nM.

The compound `CNC(=O)c1cnc(C#CCN(C(=O)[C@@H]2CCS(=O)(=O)N2c2cc(C(F)(F)F)cc(C)n2)c2ccc(F)c(C)c2)cn1` [Example 67, (S)-N-(4-fluoro-3-methylphenyl)-2-(6-methyl-4-(trifluoromethyl)pyridin-2-yl)-N-(3-(5-(methylcarbamoyl)pyrazin-2-yl)prop-2-yn-1-yl)isothiazolidine-3-carboxamide 1,1-dioxide] registered an IC50 of over 5100 nM.

With `Cc1cc(C(F)(F)F)cc(N2[C@H](C(=O)N(CC#Cc3cnc(C(=O)N(C)C)cn3)c3ccc(F)c(C)c3)CCS2(=O)=O)n1` [Example 68, (S)-N-(3-(5-(dimethylcarbamoyl)pyrazin-2-yl)prop-2-yn-1-yl)-N-(4-fluoro-3-methylphenyl)-2-(6-methyl-4-(trifluoromethyl)pyridin-2-yl)isothiazolidine-3-carboxamide 1,1-dioxide], the IC50 is under 1000 nM.

`Cc1cc(C(F)(F)F)cc(N2[C@H](C(=O)N(CC#Cc3cnc(C(=O)N4CCOCC4)cn3)c3ccc(F)c(C)c3)CCS2(=O)=O)n1` [Example 69, (S)-N-(4-fluoro-3-methylphenyl)-2-(6-methyl-4-(trifluoromethyl)pyridin-2-yl)-N-(3-(5-(morpholine-4-carbonyl)pyrazin-2-yl)prop-2-yn-1-yl)isothiazolidine-3-carboxamide 1,1-dioxide]: the IC50 was under 1000 nM.

The compound `Cc1cc(C(F)(F)F)cc(N2[C@H](C(=O)N(CC#Cc3cncc(C(=O)N4CCOCC4)n3)c3ccc(F)c(C)c3)CCS2(=O)=O)n1` [Example 70, (S)-N-(4-fluoro-3-methylphenyl)-2-(6-methyl-4-(trifluoromethyl)pyridin-2-yl)-N-(3-(6-(morpholine-4-carbonyl)pyrazin-2-yl)prop-2-yn-1-yl)isothiazolidine-3-carboxamide 1,1-dioxide] displayed an IC50 of 1100 to 5000 nM.

The compound `Cc1cc(C(F)(F)F)cc(N2[C@H](C(=O)N(CC#Cc3cncc(C(=O)N4CC5CCC(C4)O5)n3)c3ccc(F)c(C)c3)CCS2(=O)=O)n1` [Example 71, (3S)-N-(3-(6-(8-oxa-3-azabicyclo[3.2.1]octane-3-carbonyl)pyrazin-2-yl)prop-2-yn-1-yl)-N-(4-fluoro-3-methylphenyl)-2-(6-methyl-4-(trifluoromethyl)pyridin-2-yl)isothiazolidine-3-carboxamide 1,1-dioxide] came in with an IC50 of under 1000 nM.

The compound `Cc1cc(C(F)(F)F)cc(N2[C@H](C(=O)N(CC#Cc3cncc(C(=O)N4CCNCC4)n3)c3ccc(F)c(C)c3)CCS2(=O)=O)n1` [Example 72, (S)-N-(4-fluoro-3-methylphenyl)-2-(6-methyl-4-(trifluoromethyl)pyridin-2-yl)-N-(3-(6-(piperazine-1-carbonyl)pyrazin-2-yl)prop-2-yn-1-yl)isothiazolidine-3-carboxamide 1,1-dioxide] returned an IC50 of under 1000 nM.

Take `Cc1cc(C(F)(F)F)cc(N2[C@H](C(=O)N(CC#Cc3cncc(C(=O)N4CC5CCC(C4)N5)n3)c3ccc(F)c(C)c3)CCS2(=O)=O)n1` [Example 73, (3S)-N-(3-(6-(3,8-diazabicyclo[3.2.1]octane-3-carbonyl)pyrazin-2-yl)prop-2-yn-1-yl)-N-(4-fluoro-3-methylphenyl)-2-(6-methyl-4-(trifluoromethyl)pyridin-2-yl)isothiazolidine-3-carboxamide 1,1-dioxide]: the IC50 is under 1000 nM.

`Cc1cc(C(F)(F)F)cc(N2[C@H](C(=O)N(CC#Cc3cncc(C(=O)N4C[C@H](C)N[C@@H](C)C4)n3)c3ccc(F)c(C)c3)CCS2(=O)=O)n1` [Example 74, (S)-N-(3-(6-((3S,5S)-3,5-dimethylpiperazine-1-carbonyl)pyrazin-2-yl)prop-2-yn-1-yl)-N-(4-fluoro-3-methylphenyl)-2-(6-methyl-4-(trifluoromethyl)pyridin-2-yl)isothiazolidine-3-carboxamide 1,1-dioxide] returned a half-maximal inhibitory concentration (IC50) of under 1000 nM.

For `Cc1cc(C(F)(F)F)cc(N2[C@H](C(=O)N(CC#Cc3cc(N4CCOCC4)ncn3)c3ccc(F)c(C)c3)CCS2(=O)=O)n1` [Example 75, (S)-N-(4-fluoro-3-methylphenyl)-2-(6-methyl-4-(trifluoromethyl)pyridin-2-yl)-N-(3-(6-morpholinopyrimidin-4-yl)prop-2-yn-1-yl)isothiazolidine-3-carboxamide 1,1-dioxide], the IC50 is under 1000 nM.

`Cc1cc(C(F)(F)F)cc(N2[C@H](C(=O)N(CC#Cc3cc(N4CCOCC4)nc(C(F)(F)F)n3)c3ccc(F)c(C)c3)CCS2(=O)=O)n1` [Example 76, (S)-N-(4-fluoro-3-methylphenyl)-2-(6-methyl-4-(trifluoromethyl)pyridin-2-yl)-N-(3-(6-morpholino-2-(trifluoromethyl)pyrimidin-4-yl)prop-2-yn-1-yl)isothiazolidine-3-carboxamide 1,1-dioxide] gave an IC50 of under 1000 nM.

As for `Cc1cc(C(F)(F)F)cc(N2[C@H](C(=O)N(CC#Cc3cnc(N4CCOCC4)nc3)c3ccc(F)c(C)c3)CCS2(=O)=O)n1` [Example 77, (S)-N-(4-fluoro-3-methylphenyl)-2-(6-methyl-4-(trifluoromethyl)pyridin-2-yl)-N-(3-(2-morpholinopyrimidin-5-yl)prop-2-yn-1-yl)isothiazolidine-3-carboxamide 1,1-dioxide], the IC50 is under 1000 nM.

In the case of `Cc1cc(C(F)(F)F)cc(N2[C@H](C(=O)N(CC#Cc3cnc(C(N)=O)nc3)c3ccc(F)c(C)c3)CCS2(=O)=O)n1` [Example 78, (S)-N-(3-(2-carbamoylpyrimidin-5-yl)prop-2-yn-1-yl)-N-(4-fluoro-3-methylphenyl)-2-(6-methyl-4-(trifluoromethyl)pyridin-2-yl)isothiazolidine-3-carboxamide 1,1-dioxide], the concentration for half-maximal inhibition (IC50) was under 1000 nM.

For `Cc1cc(C(F)(F)F)cc(N2[C@H](C(=O)N(CC#Cc3ncc(N4CCOCC4)cn3)c3ccc(F)c(C)c3)CCS2(=O)=O)n1` [Example 79, (S)-N-(4-fluoro-3-methylphenyl)-2-(6-methyl-4-(trifluoromethyl)pyridin-2-yl)-N-(3-(5-morpholinopyrimidin-2-yl)prop-2-yn-1-yl)isothiazolidine-3-carboxamide 1,1-dioxide], the half-inhibitory concentration (IC50) is under 1000 nM.
